Read-outs that look alike come from different tables or passages of the source. Marks after values point to notes of the source that are not given here.
Columns and labels:
mice [1] = conditions: for MES: active at: mice, ip; for Number of animals active or toxic over the number tested: MES
mice [2] = experiment: Rotarod test (neurotoxicity); type: in vivo; conditions: for Rotarod: neurotoxic at: mice, ip; for Number of animals active or toxic over the number tested: Rotarod;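 as to all read-outs here: in vivo neurotoxicity screen run within the NIH Epilepsy Therapy Screening Program (ETSP, formerly Anticonvulsant Screening Program)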
mice [3] = conditions: 32 mA, ip; cited from earlier work
mice [4] = conditions: ip, cited from earlier work
mice [5] = conditions: ip; cited from earlier work
guinea pigs [6] = experiment: Infiltration anesthesia (intradermal wheal test); type: in vivo
Protocol: A painful reaction to a prick of the skin at the centre of the wheal three times and every 5 s with 5 min intervals during the first 30 min of observation was tested. The experiment was continued to achieve a return of a reaction to the prick. The control wheal was done by an intradermal injection of 0.1 mL of 0.9% NaCl [25]. Local anesthesia was determined by calculating the ratio of the number of positive responses (no flinch) to the number of negative responses (flinch).

mice [7] = experiment: Tail immersion test (local anesthetic activity); type: in vivo
Protocol: The tail immersion test in mice. […] The method was performed by subcutaneous (sc) injection of the tested substance dissolved in saline, at a concentration range 0.06–2%, in a constant volume of 0.2 mL about 1 cm from the root of the mouse tail. Fifteen minutes later, the 3-cm distal part of the tail was immersed into temperature-controlled water (50 ± 0.5 °C). The reaction time (latency until the tail is pulled away) was measured by the means of a chronometer. In this assay the cut-off was 20 s [29].

mice [8] = experiment: Formalin test (first screening); type: in vivo; conditions: ip
Protocol: Formalin test. The first screening in doses 15 and 30 mg/kg was performed at the Jagiellonian University-Medical College. […] After 30 min, animals were injected with 20 μL of a 0.5% formalin solution into the plantar surface of the hind paw. The total time spent by animal licking or biting the injected paw was assessed for the following 40 min.

guinea pigs [9] = experiment: Corneal anesthesia; type: in vivo; conditions: 5 min
Protocol: A. Corneal anesthesia. […] The corneal reflex was examined by irritation of right eye conjunctiva (studied eye) and a left eye conjunctiva (control eye) by horsehair. The strength of local anesthetic activity was determined from the moment of solution instillation to the moment of reflex return. The presence or lack of corneal reflex were assessed. The eye conjunctiva irritation was done 6 times (every 5 s) with the interval of 5 min during the first 30 min [31].

mice [10] = experiment: Subcutaneous pentylenetetrazole seizure test (ScPTZ, SCMET); type: in vivo; conditions: mice, ip, 0.5 h
Protocol: The assays were carried out within the Epilepsy Therapy Screening Program (ETSP, previously known as the Anticonvulsant Screening Program, ASP), Epilepsy Branch, National Institute of Neurological and Communicative Disorders and Stroke, National Institutes of Health in Rockville, MD, USA [23].

mice [11] = experiment: Antiseizure activity and preliminary toxicity screening; type: in vivo; conditions: ip
mice [12] = experiment: 6 Hz test; type: in vivo; conditions: for Number of animals active or toxic over the number tested: 6 Hz
Protocol: The 6 Hz model test was carried out according to the protocol originally described by Brown et al. [54] and more recently by Barton et al. [55] and Kamiński et al. [47] and is a model of pharmacoresistant epilepsy [56].

rats = conditions: ip; cited from earlier work
guinea pigs [13] = conditions: 0.5%, cited from earlier work
mice [14] = conditions: cited from earlier work

Cc1cccc(Cl)c1OCCN[C@@H]1CCCC[C@H]1O (relative stereo) [Compound 8, R,S-trans-2-((2-(2-chloro-6-methylphenoxy)ethyl)amino)cyclohexan-1-ol]
MES: active at (mice [1]; 0.5 h): 30 mg/kg
Rotarod: neurotoxic at (mice [2]; 0.5 h): 100 mg/kg

CC(=O)[C@H]1CC[C@H]2[C@@H]3CC[C@H]4C[C@H](O)CC[C@]4(C)[C@H]3CC[C@]12C [Allopregnanolone]
6 Hz ED50 (mice [3]): 14.2 (10.3–19.4) mg/kg
6 Hz TPE (mice [3]): 0.17 h
MES ED50 (mice [4]): > 100 mg/kg
MES TPE (mice [4]): 0.17 h
ScPTZ ED50 (mice [5]): 13.7 (10.1–18.7) mg/kg
ScPTZ TPE (mice [5]): 0.17 h

Cc1cccc(Cl)c1OCCNCC(C)O (centres unmarked) [Compound 1, R,S-1-((2-(2-chloro-6-methylphenoxy)ethyl)amino)propan-2-ol]
MES: active at (mice [1]; 0.5 h): 30 mg/kg
Rotarod: neurotoxic at (mice [2]; 0.5 h): 100 mg/kg

Cc1cccc(Cl)c1OCCNC(C)CO (centres unmarked) [Compound 2, R,S-2-((2-(2-chloro-6-methylphenoxy)ethyl)amino)propan-1-ol]
MES: active at (mice [1]; 0.5 h): MES: active at 100 Rotarod: neurotoxic at 100 mg/kg
Rotarod: neurotoxic at (mice [2]; 0.5 h): MES: active at 100 Rotarod: neurotoxic at 100 mg/kg

CCC(O)CNCCOc1c(C)cccc1Cl (centres unmarked) [Compound 3, R,S-1-((2-(2-chloro-6-methylphenoxy)ethyl)amino)butan-2-ol]
MES: active at (mice [1]; 0.5 h): 30 mg/kg
Rotarod: neurotoxic at (mice [2]; 0.5 h): 100 mg/kg

CC[C@@H](CO)NCCOc1c(C)cccc1Cl.Cl [Compound 6a, S-( +)-2-((2-(2-chloro-6-methylphenoxy)ethyl)amino)butan-1-ol hydrochloride]
MES: active at (mice [1]; 0.5 h): MES: active at 100 Rotarod: neurotoxic at 100 mg/kg
Inhibition of pain reaction (guinea pigs [6]; 0.5%, 30 min): 93.75*** %
Inhibition of pain reaction (guinea pigs [6]; 0.5%, 60 min): 43.75* %
Inhibition of pain reaction (guinea pigs [6]; 0.5%, 120 min): 25%
Inhibition of pain reaction (guinea pigs [6]; […], 5 min): 94.44*** %
Inhibition of pain reaction (guinea pigs [6]; […], 60 min): 38.89* %
Prolongation of the time reaction (mice [7]; 0.031%): 60.0%
Reaction time to painful stimulus (mice [7]; 0.031%): 5.6 ± 0.9 s
Prolongation of the time reaction (mice [7]; 0.094%): 82.9%
Reaction time to painful stimulus (mice [7]; 0.094%): 6.4 ± 0.8 s
Prolongation of the time reaction (mice [7]; 0.125%): 348.6%
Reaction time to painful stimulus (mice [7]; 0.125%): 15.7 ± 1.8 s
Prolongation of the time reaction (mice [7]; 0.5%): 457.1%
Reaction time to painful stimulus (mice [7]; 0.5%): 19.5 ± 0.5 s
Prolongation of the time reaction (mice [7]; 2.0%): 437.1%
Reaction time to painful stimulus (mice [7]; 2.0%): 18.8 ± 1.9 s
Prolongation of the time reaction (mice [7]; […]): 5.7%
Reaction time to painful stimulus (mice [7]; […]): 3.7 ± 0.6 s
% of effect (I phase) (mice [8]; 30.0 mg/kg): 33.4%
% of effect (II phase) (mice [8]; 30.0 mg/kg): 10.2%
Time of licking paw ± SEM (I phase) (mice [8]; 30.0 mg/kg): 59.7 ± 6.4 s
formalin test (I phase): active at (mice [8]): 30 mg/kg
Rotarod: neurotoxic at (mice [2]; 0.5 h): MES: active at 100 Rotarod: neurotoxic at 100 mg/kg
Inhibition of pain reaction (guinea pigs [9]; 0.5%): 75*** %
Inhibition of pain reaction (guinea pigs [9]; […]): 63.89*** %

Cc1cccc(Cl)c1OCCNC(C)(CO)CO [Compound 7, 2-((2-(2-chloro-6-methylphenoxy)ethyl)amino)-2-methylpropane-1,3-diol]
melting point: 83 to 85 °C
MES: active at (mice [1]; 0.5 h): MES: active at 100 Rotarod: neurotoxic at 100 mg/kg
Rotarod: neurotoxic at (mice [2]; 0.5 h): MES: active at 100 Rotarod: neurotoxic at 100 mg/kg

Cc1cccc(Cl)c1OCCNCC(O)c1ccccc1 (centres unmarked) [Compound 9, R,S-2-((2-(2-chloro-6-methylphenoxy)ethyl)amino)-1-phenylethan-1-oll]
MES: active at (mice [1]; 0.5 h): 30 mg/kg
Rotarod: neurotoxic at (mice [2]; 0.5 h): 100 mg/kg

Cc1cccc(Cl)c1OCC(=O)NCC(C)O (centres unmarked) [Compound 10, R,S-2-(2-chloro-6-methylphenoxy)-N-(2-hydroxypropyl)acetamide]
ScPTZ: active at (mice [10]): 300 mg/kg
Rotarod: neurotoxic at (mice [2]; 0.5 h): 300 mg/kg

Cc1cccc(Cl)c1OCC(=O)NC(C)CO (centres unmarked) [Compound 11, R,S-2-(2-chloro-6-methylphenoxy)-N-(1-hydroxypropan-2-yl)acetamide]
MES: active at (mice [1]; 0.5 h): 300 mg/kg
Rotarod: neurotoxic at (mice [2]; 0.5 h): 100 mg/kg

CCC(CO)NC(=O)COc1c(C)cccc1Cl (centres unmarked) [Compound 12, R,S-2-(2-chloro-6-methylphenoxy)-N-(1-hydroxybutan-2-yl)acetamide]
MES: active at (mice [1]; 0.5 h): 300 mg/kg
ScPTZ: active at (mice [10]): 100 mg/kg
Rotarod: neurotoxic at (mice [2]; 0.5 h): 300 mg/kg

Cc1cccc(Cl)c1OCC(=O)NC(C)C(=O)O (stereo not drawn) [Compound 13, R,S-(2-(2-chloro-6-methylphenoxy)acetyl)alanine]
Antiseizure activity and preliminary toxicity screening: result (mice [11]): No activity

Cc1cccc(Cl)c1OCC(=O)N[C@H](C)C(=O)O [Compound 14, R-(+)-(2-(2-chloro-6-methylphenoxy)acetyl)alanine]
Antiseizure activity and preliminary toxicity screening: result (mice [11]): No activity

Cc1cccc(Cl)c1OCC(=O)N[C@@H](C)C(=O)O [Compound 15, S-(-)-(2-(2-chloro-6-methylphenoxy)acetyl)alanine]
Antiseizure activity and preliminary toxicity screening: result (mice [11]): No activity

CCC(NC(=O)COc1c(C)cccc1Cl)C(=O)O (centres unmarked) [Compound 16, R,S-2-(2-(2-chloro-6-methylphenoxy)acetamido)butanoic acid]
Antiseizure activity and preliminary toxicity screening: result (mice [11]): No activity

Cc1cccc(Cl)c1OCC(=O)N[C@H]1CC[C@H](O)CC1 [Compound 18, Trans-2-(2-chloro-6-methylphenoxy)-N-(4-hydroxycyclohexyl)acetamide]
Number of animals active or toxic over the number tested (mice [1]; 30 mg/kg, 0.5 h): 3/4
Number of animals active or toxic over the number tested (mice [1]; 30 mg/kg, 2.0 h): 0/4
Number of animals active or toxic over the number tested (mice [1]; 100 mg/kg, 0.5 h): 4/4
Number of animals active or toxic over the number tested (mice [1]; 100 mg/kg, 2.0 h): 0/4
Number of animals active or toxic over the number tested (mice [1]; 300 mg/kg, 0.5 h): 4/4
Number of animals active or toxic over the number tested (mice [1]; 300 mg/kg, 2.0 h): 4/4
MES: active at (mice [1]; 0.5 h): 30 mg/kg
Number of animals active or toxic over the number tested (mice [2]; 30 mg/kg, 0.5 h): 0/8
Number of animals active or toxic over the number tested (mice [2]; 30 mg/kg, 2.0 h): 0/8
Number of animals active or toxic over the number tested (mice [2]; 100 mg/kg, 0.5 h): 2/8
Number of animals active or toxic over the number tested (mice [2]; 100 mg/kg, 2.0 h): 0/8
Number of animals active or toxic over the number tested (mice [2]; 300 mg/kg, 0.5 h): 8/8 (sedated)
Number of animals active or toxic over the number tested (mice [2]; 300 mg/kg, 2.0 h): 0/8 (unable to grasp rotarod)
Rotarod: neurotoxic at (mice [2]; 0.5 h): 100 mg/kg
Number of animals active or toxic over the number tested (mice [12]; 30 mg/kg, 0.5 h): 0/4
Number of animals active or toxic over the number tested (mice [12]; 30 mg/kg, 2.0 h): 0/4
Number of animals active or toxic over the number tested (mice [12]; 100 mg/kg, 0.5 h): 4/4
Number of animals active or toxic over the number tested (mice [12]; 100 mg/kg, 2.0 h): 0/4
Number of animals active or toxic over the number tested (mice [12]; 300 mg/kg, 0.5 h): 4/4
Number of animals active or toxic over the number tested (mice [12]; 300 mg/kg, 2.0 h): 4/4
8 Hz: active at (mice [12]; mice, ip, 0.5 h): 100 mg/kg

NCC1(CC(=O)O)CCCCC1 [Gabapentin]
SNL ED50 (rats): 32 mg/kg

CCN(CC)CC(=O)Nc1c(C)cccc1C [Lidocaine]
Inhibition of pain reaction (guinea pigs [13]; 240 min): 22.2%
Inhibition of pain reaction (guinea pigs [13]; 24 h): 0%

Cc1cccc(C)c1NC(=O)C1CCCCN1C (centres unmarked) [Mepivacaine]
Prolongation of the time reaction (mice [14]; 1.0%): 94.63%
Reaction time to painful stimulus (mice [14]; 1.0%): 14.13 ± 2.67 s
Prolongation of the time reaction (mice [14]; 2.0%): 116.67%
Reaction time to painful stimulus (mice [14]; 2.0%): 15.73 ± 2.09 s

NC(=O)N1c2ccccc2CC(=O)c2ccccc21 [Oxcarbazepine]
SNL MED (rats): 10 mg/kg

O=C1NC(=O)C(c2ccccc2)(c2ccccc2)N1 [Phenytoin]
Prolongation of the time reaction (mice [14]; 1.0%): 18%
Reaction time to painful stimulus (mice [14]; 1.0%): 5.72 ± 0.63 s
Prolongation of the time reaction (mice [14]; 2.0%): 84%
Reaction time to painful stimulus (mice [14]; 2.0%): 8.90 ± 0.80 s

CC(C)NCC(O)COc1cccc2ccccc12 (centres unmarked) [Propranolol, propranolol]
MES ED50 (mice [4]; Table 3): MES: ED50 = 15–20 mg/kg
